Source: publication PMC5963671, “Hes1 inhibitor isolated by target protein oriented natural products isolation (TPO-NAPI) of differentiation activators of neural stem cells† †Electronic supplementary information (ESI) available. See DOI: 10.1039/c5sc03540f” (Chemical Science, 2015)

Legend:
Hes1 [1] = target: T1, Hes1 (Rattus norvegicus, UniProt Q04666); assay: biochemical; set-up: Fluorescence plate assay of Hes1 dimer formation, immobilized Hes1 with Cy3-labeled Hes1; settings: Hes1 dimer formation
T1 construct: Rat-Hes1 (residues 3-281)
T1 sequence (Q04666 3-281): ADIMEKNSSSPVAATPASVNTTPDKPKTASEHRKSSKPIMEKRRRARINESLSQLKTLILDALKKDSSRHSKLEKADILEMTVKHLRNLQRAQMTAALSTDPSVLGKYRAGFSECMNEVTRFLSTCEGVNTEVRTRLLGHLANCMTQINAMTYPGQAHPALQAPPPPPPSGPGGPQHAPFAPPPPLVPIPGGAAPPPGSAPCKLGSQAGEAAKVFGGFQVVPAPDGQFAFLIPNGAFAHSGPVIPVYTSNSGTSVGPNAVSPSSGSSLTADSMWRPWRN
Description: Nunc Immobilizer™ Amino 96 well plate, white (Nalge Nunc Int.) was used for immobilizing of Hes1. The wells were incubated with 100 μL of Hes1 (10 μg mL^–1 in PBS) for 2 h at 4 °C. After the removal of protein solution, to block remaining activated units on the well, the wells were incubated for 2 h at 4 °C with 100 μL of 10 mM ethanolamine (in 100 mM Na2CO3 buffer, pH 9.6), then washed twice with 200 μL of PBST (PBS containing 0.05% Tween 20). The Hes1 bound microplate wells were incubated with 50 μL of Cy3-labeled-Hes1 in NET-N buffer (ca. 7 mg L^–1, dye/protein = 0.65) for 24 h at 4 °C. After removal of protein solution, each well was washed twice with 200 μL of PBST, then each compound solution (NET-N buffer, 50 μL) was added. After incubation for 1 h at RT in the dark, each well was washed twice with 200 μL of PBST, then dried under reduced pressure 1 h in the dark. The fluorescence intensity was measured in a microplate reader (Fluoroskan Ascent, Thermo). The Cy3 dye was excited at 530 nm and emitted at 590 nm. Usually, the assays were carried out in three individual wells, and the mean value and SD were calculated. Fig. 4 Hes1 dimer formation inhibitory activity. (a) Schematic representation of the assay for inhibitors of Hes1 dimer formation. Rat-Hes1 (residues 3-281) was exposed to Cy3-labeled Hes1. Hes1 dimer was detected through its fluorescence intensity.[40] The assay was performed after the equilibrium of exchange between immobilized Hes1 with Cy3-Hes1 and unlabeled Hes1 which was estimated to be included as unlabeled Hes1 dimers at the immobilizing stage. (b) Hes1 dimer formation inhibition by the isolated compounds 2–4. […] The complex was detected with horseradish peroxidase (HRP) conjugated anti-GST antibody. […] The ratio of dye/protein was calculated from the absorption for Cy3 (ε 150000 M-1 cm-1 at 552 nm). […] Fluorescence plate assay for inhibitors of Hes1 dimer formation Nunc ImmobilizerTM Amino 96 well plate, white (Nalge Nunc Int.) was used for immobilizing of Hes1. […] The fluorescence intensity was measured in a microplate reader (Fluoroskan Ascent, Thermo). […]

Hes1 [2] = target: T1, Hes1; assay: Hes1 dimer fluorescence plate assay (Cy3-Hes1); binding also shown by GST-Hes1 beads-HPLC
Hes1 [3] = target: T1, Hes1; assay: Hes1 dimer fluorescence plate assay (Cy3-Hes1); binding also shown by GST-Hes1 beads-HPLC with truncated proteins
[4] = target: the molecule itself; assay: fluorescence plate assay (Hes1 dimer plate assay); Hes1 (10 μg/mL in PBS) immobilised on a Nunc Immobilizer Amino 96 well plate; Cy3-labeled Hes1 (ca. 7 mg/L) in NET-N buffer for 24 h at 4 °C; washed with PBST; fluorescence read at 530/590 nm

In the case of `CCCC(=O)/C=C/C1=C(O)C(=O)c2cc(O)c(O)cc2C1=O` [compound 1, lindbladione], the IC50 (Hes1 [1]) is reported as 3.7 µM.

For `COc1cc(O[C@@H]2O[C@H](CO[C@@H]3OC[C@@H](O)[C@H](O)[C@H]3O)[C@@H](O)[C@H](O)[C@H]2O)c2c(=O)cc(-c3ccc(O)cc3)oc2c1` [compound 3, genkwanin 5-O-β-D-xylosyl-β-D-glucoside], the IC50 (Hes1 [1]) was > 64 µM.

`COc1cc(O[C@@H]2O[C@H](CO[C@@H]3OC[C@@H](O)[C@H](O)[C@H]3O)[C@@H](O)[C@H](O)[C@H]2O)c2c(=O)cc(-c3ccc(OC)c(OC)c3)oc2c1` [compound 4, lethedioside A] was tested, and the IC50 (Hes1 [2]) was 9.5 µM.

For `COc1c(O)cc2oc3cc(O)c(CC=C(C)C)c(O)c3c(=O)c2c1CC=C(C)C` [compound 5, α-Mangostine], the IC50 (Hes1 [1]) was > 64 µM.

Molecule `COc1ccc(-c2cc(=O)c3c(O[C@@H]4O[C@H](CO[C@@H]5OC[C@@H](O)[C@H](O)[C@H]5O)[C@@H](O)[C@H](O)[C@H]4O)cc(OC)cc3o2)cc1` [compound 2, agalloside] has an IC50 (Hes1 [3]) of 10.1 µM.

B1: Rat-Hes1 (residues 3-281) (natural protein, UniProt Q04666 3-281, looked up)
chain: ADIMEKNSSSPVAATPASVNTTPDKPKTASEHRKSSKPIMEKRRRARINESLSQLKTLILDALKKDSSRHSKLEKADILEMTVKHLRNLQRAQMTAALSTDPSVLGKYRAGFSECMNEVTRFLSTCEGVNTEVRTRLLGHLANCMTQINAMTYPGQAHPALQAPPPPPPSGPGGPQHAPFAPPPPLVPIPGGAAPPPGSAPCKLGSQAGEAAKVFGGFQVVPAPDGQFAFLIPNGAFAHSGPVIPVYTSNSGTSVGPNAVSPSSGSSLTADSMWRPWRN
modifications: Cy3 label on the copy added in solution (dye/protein = 0.65); the immobilised copy is unlabelled
notes: Hes1 (hairy and Enhancer of split 1), rat, residues 3-281; One copy was coupled to a Nunc Immobilizer Amino plate and the other was Cy3-labelled; also called Cy3-labeled Hes1; Cy3-Hes1
B1: binds [4].
